In PubChem BioAssay (NCI):
“And” between values parts separate entries of the source, which are not always exact repeats. Identical values can stand only once.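 These data come from cells grown in 96-well plates and exposed to compound for 48 hours at five concentrations. GI50 is the concentration that inhibits growth by half. TGI: total growth inhibition.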

Columns and labels:
Assay in all cases: growth of human tumour cells (NCI), 48 h
DMS 273 small cell lung = tested on: DMS 273 small cell lung
KM20L2 colon = tested on: KM20L2 colon
SNB-78 CNS = tested on: SNB-78 CNS
DLD-1 colon = tested on: DLD-1 colon
M19-MEL melanoma = tested on: M19-MEL melanoma
DMS 114 small cell lung = tested on: DMS 114 small cell lung
LXFL 529 NSCLC = tested on: LXFL 529 NSCLC
MDA-MB-231 breast = tested on: MDA-MB-231 breast
DU-145 prostate = tested on: DU-145 prostate
T-47D breast = tested on: T-47D breast

| SMILES | TGI (DMS 273 small cell lung) | TGI (KM20L2 colon) | TGI (SNB-78 CNS) | TGI (DLD-1 colon) | TGI (M19-MEL melanoma) | TGI (DMS 114 small cell lung) | TGI (LXFL 529 NSCLC) | GI50 (MDA-MB-231 breast) | TGI (MDA-MB-231 breast) | TGI (DU-145 prostate) | TGI (T-47D breast) | GI50 (DMS 273 small cell lung) | GI50 (KM20L2 colon) | GI50 (SNB-78 CNS) | GI50 (DLD-1 colon) | GI50 (M19-MEL melanoma) | GI50 (DMS 114 small cell lung) |
| --- | --- | --- | --- | --- | --- | --- | --- | --- | --- | --- | --- | --- | --- | --- | --- | --- | --- |
| O=c1[nH]cnc2c1nnn2C1C=C(CO)C(O)C1O (centres undefined) | 60.1 µM | > 100 µM | > 100 µM | > 100 µM | > 100 µM | > 100 µM | > 100 µM |  |  |  |  |  |  |  |  |  |  |
| CN(C)CC1CCCC(CN(C)C)C1=O (centres undefined) | 26.8 µM | 13.2 µM | 10.3 µM | 4.14 µM | 7.24 µM | 3.87 µM | 0.998 µM | 3.9 µM and 16 µM | 13 µM and 31.2 µM | 29.4 µM | 4.23 µM and 3.38 µM |  |  |  |  |  |  |
| O=C1/C(=C/c2ccccc2Cl)COc2ccccc21 | 31.6 µM | 38.1 µM | 41.3 µM | 29.4 µM | 34.2 µM | 36.2 µM | 31.6 µM |  |  |  |  |  |  |  |  |  |  |
| CCOC(=O)C1=C(O)CSC1=Nc1ccc(N=C2SCC(O)=C2C(=O)OCC)cc1 | 42.8 µM | > 100 µM | > 100 µM | 50.4 µM | 61.2 µM | 59.6 µM | 57.9 µM |  |  |  |  |  |  |  |  |  |  |
| CCOC(=O)C12CN(C34CC5CC(CC(C5)C3)C4)CC(C(=O)OCC)(C1=O)C(c1ccccc1)OC2c1ccccc1 (centres undefined) | > 100 µM | > 100 µM | > 100 µM | > 100 µM | > 100 µM | > 100 µM | > 100 µM |  |  |  |  |  |  |  |  |  |  |
| COc1ccc(Nc2nc3c(N)cc(C(F)(F)F)cc3nc2-c2ccccc2)cc1 | > 100 µM | > 100 µM | > 100 µM | > 100 µM | > 100 µM | > 100 µM | > 100 µM |  |  |  |  |  |  |  |  |  |  |
| Nc1ccc(C(=O)O)c2[nH]c3ccccc3c(=O)c12 | > 100 µM | > 100 µM | > 100 µM | > 100 µM | > 100 µM | > 100 µM | > 100 µM |  |  |  |  |  |  |  |  |  |  |
| CCOc1ccc(NC(=O)/C(=C/c2ccccc2)C(C)=O)cc1 | 43.2 µM | 32.5 µM | 38.8 µM | 24 µM | 27.7 µM | 26.9 µM |  |  |  |  |  |  |  |  |  |  |  |
| COc1ccc(C(=O)Nc2ccccc2)cc1[N+](=O)[O-] | > 100 µM | > 100 µM | > 100 µM | > 100 µM | > 100 µM | > 100 µM | > 100 µM |  |  |  |  |  |  |  |  |  |  |
| Clc1ccc(C2=NN(c3ccccc3)C3c4cc(Br)ccc4OCC23)cc1 (centres undefined) | > 100 µM | > 100 µM | > 100 µM | > 100 µM | > 100 µM | > 100 µM | > 100 µM |  |  |  |  |  |  |  |  |  |  |
| COC(=O)C1(c2ccc(OC)cc2)NC(c2ccccc2)C2C(=O)N(c3ccc(OC)cc3)C(=O)C21 (centres undefined) | > 100 µM | > 100 µM | > 100 µM | > 100 µM |  | > 100 µM | > 100 µM |  |  |  |  |  |  |  |  |  |  |
| COC1C2c3ccccc3C(C#N)(Cc3ccc4c(c32)OCO4)N1C(=O)c1ccccc1 (centres undefined) | 98.3 µM | > 100 µM | > 100 µM | > 100 µM |  | > 100 µM | > 100 µM |  |  |  |  |  |  |  |  |  |  |
| Cc1ccc(C)c(NC(=O)CCC(=O)CC(=O)C(C)(C)C)c1 | > 100 µM | > 100 µM | > 100 µM | > 100 µM | > 100 µM | > 100 µM | > 100 µM |  |  |  |  |  |  |  |  |  |  |
| C[CH2][Sn]([CH2]C)([O]C(=O)c1cc(OC)c(OC)c(OC)c1)[O][Sn]([CH2]C)([CH2]C)[O]C(=O)c1cc(OC)c(OC)c(OC)c1 | > 100 µM | > 100 µM | 41 µM | > 74.1 µM | > 100 µM | 29.1 µM |  |  |  |  |  | 84.5 µM | 64.6 µM | 17 µM | 27.9 µM | 31.3 µM | 15.1 µM |
| C=C1C(=O)C23C(O)C1CCC2C12CO[C@]3(O)[C@@H](O)C1C(C)(C)CCC2O (some centres undefined) | 28.1 µM | 30.5 µM | 32.8 µM | 33.8 µM | 23.7 µM | 20.7 µM | 6.03 µM |  |  |  |  |  |  |  |  |  |  |
| CC1(C)CC[C@]2(C(=O)O)CCC3(C)C(=CCC4[C@@]5(C)CC[C@H](OC6OCC(O)C(O)C6OC6OC(CO)C(O)C(O)C6O)C(C)(C)C5CC[C@]43C)C2C1 (some centres undefined) | 3.93 µM | 3.7 µM | 5.04 µM | 22.7 µM | 3.46 µM | 3.62 µM | 3.39 µM |  |  |  |  |  |  |  |  |  |  |
| CCN1CCC(O)(c2ccccc2)C(C(=O)c2ccccc2)C1 (centres undefined) | > 100 µM | > 60.7 µM | 54.1 µM | 37 µM | > 63.1 µM | > 67.4 µM | 29.4 µM |  |  |  |  |  |  |  |  |  |  |
| COc1ccc(Br)c(CCCCC(=O)O)c1 | > 100 µM | > 100 µM | > 100 µM | > 100 µM | > 100 µM | > 100 µM | > 100 µM |  |  |  |  |  |  |  |  |  |  |
| COc1ccccc1NS(=O)(=O)c1cc(C(C)(C)C)ccc1OCCOc1ccc(C(C)(C)C)cc1S(=O)(=O)Nc1ccccc1OC | > 100 µM |  | > 100 µM | > 100 µM | > 100 µM | > 100 µM |  |  |  |  |  |  |  |  |  |  |  |
| Fc1cccc(C=NC23CC4CC(CC(C4)C2)C3)c1 | > 100 µM | > 100 µM | > 100 µM | > 100 µM | > 100 µM | > 100 µM | > 100 µM |  |  |  |  |  |  |  |  |  |  |
